Assay results from PubChem BioAssay AID212 (DTP/NCI, 2004).
Several values for one entry are separate records, joined by “and”; a condition that tells them apart may be missing. Identical values can stand only once. Inconclusive results are not listed.

Tested on: BDF1 mice, colon carcinoma 38 sc, T/C %
Experiment: NCI In Vivo Anticancer Drug Screen. Data for tumor model Colon Carcinoma 38 (subcutaneous) in B6D2F1 (BDF1) mice
Conditions: endpoint: median tumor weight (est.), higher = larger tumour
Outline: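 Mice with transplanted tumors are treated with compound or vehicle. Survival or tumor size is then measured in both groups. The ratio of treated to control gives the reported figure.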

[1] = dose: 25.0 mg/kg/injection, schedule: Q07DX003 (ip), vehicle: saline with Tween-80
[2] = dose: 200.0 mg/kg/injection, schedule: Q07DX003 (ip), vehicle: saline with Tween-80
[3] = dose: 400.0 mg/kg/injection, schedule: Q07DX003 (ip), vehicle: saline with Tween-80
[4] = dose: 100.0 mg/kg/injection, schedule: Q07DX002 (ip), vehicle: Klucel (hydroxypropylcellulose) (HPC)
[5] = dose: 200.0 mg/kg/injection, schedule: Q07DX002 (ip), vehicle: Klucel (hydroxypropylcellulose) (HPC)
[6] = dose: 12.5 mg/kg/injection, schedule: Q07DX002 (ip), vehicle: saline with Tween-80
[7] = dose: 50.0 mg/kg/injection, schedule: Q07DX002 (ip), vehicle: saline with Tween-80
[8] = dose: 200.0 mg/kg/injection, schedule: Q07DX002 (ip), vehicle: saline with Tween-80
[9] = dose: 400.0 mg/kg/injection, schedule: Q07DX002 (ip), vehicle: saline with Tween-80
[10] = dose: 100.0 mg/kg/injection, schedule: Q07DX002 (ip), vehicle: saline with Tween-80
[11] = dose: 25.0 mg/kg/injection, schedule: Q07DX002 (ip), vehicle: saline with Tween-80

OC(CBr)C(O)C(O)C(O)CBr (stereo not given)
T/C (dose: 25.0 mg/kg/injection, schedule: Q07DX002 (ip), vehicle: Klucel (hydroxypropylcellulose) (HPC)): 56 % of control | T/C [1]: 85 % of control | T/C (dose: 50.0 mg/kg/injection, schedule: Q07DX002 (ip), vehicle: Klucel (hydroxypropylcellulose) (HPC)): 103 % of control | T/C (dose: 50.0 mg/kg/injection, schedule: Q07DX003 (ip), vehicle: Klucel (hydroxypropylcellulose) (HPC)): 75 % of control | T/C (dose: 100.0 mg/kg/injection, schedule: Q07DX003 (ip), vehicle: Klucel (hydroxypropylcellulose) (HPC)): 122 % of control | T/C (dose: 200.0 mg/kg/injection, schedule: Q07DX003 (ip), vehicle: Klucel (hydroxypropylcellulose) (HPC)): 32 % of control | T/C [2]: 123 % of control | T/C (dose: 400.0 mg/kg/injection, schedule: Q07DX003 (ip), vehicle: Klucel (hydroxypropylcellulose) (HPC)): 7 % of control | T/C [3]: 105 % of control

[Cl][Sn]([c]1ccccc1)[c]1ccccc1
T/C (dose: 6.25 mg/kg/injection, schedule: Q07DX002 (ip), vehicle: saline): 113 % of control | T/C (dose: 12.5 mg/kg/injection, schedule: Q07DX002 (ip), vehicle: saline): 108 % of control | T/C (dose: 12.5 mg/kg/injection, schedule: Q09DX002 (ip), vehicle: saline): 95 % of control | T/C (dose: 25.0 mg/kg/injection, schedule: Q07DX002 (ip), vehicle: saline): 89 % of control | T/C (dose: 25.0 mg/kg/injection, schedule: Q09DX002 (ip), vehicle: saline): 93 % of control

O=C(Nc1ccc(Cl)c(Cl)c1)Nc1c(Oc2ccc(Cl)c(Cl)c2)ccc(Cl)c1S(=O)(=O)O
T/C (dose: 6.25 mg/kg/injection, schedule: Q07DX002 (ip), vehicle: Klucel (hydroxypropylcellulose) (HPC)): 167 % of control | T/C (dose: 12.5 mg/kg/injection, schedule: Q07DX002 (ip), vehicle: Klucel (hydroxypropylcellulose) (HPC)): 103 % of control | T/C [4]: 119 % of control | T/C [5]: 66 % of control

[O-][n+]1c(CN2CCCCC2)nc2cccc3c2c1-c1ccccc1-3
T/C [6]: 66 % of control | T/C [7]: 47 % of control | T/C [8]: 57 % of control | T/C [9]: 72 % of control and 81 % of control

C1OC1CO[C@@H]1CO[C@H]2[C@@H]1OC[C@H]2OCC1CO1 (stereo not given in full)
T/C (dose: 12.5 mg/kg/injection, schedule: Q07DX003 (ip), vehicle: saline): 47 % of control | T/C (dose: 25.0 mg/kg/injection, schedule: Q07DX002 (ip), vehicle: suspension in saline): 116 % of control | T/C (dose: 25.0 mg/kg/injection, schedule: Q07DX003 (ip), vehicle: saline): 82 % of control | T/C (dose: 50.0 mg/kg/injection, schedule: Q07DX002 (ip), vehicle: suspension in saline): 117 % of control | T/C (dose: 50.0 mg/kg/injection, schedule: Q07DX003 (ip), vehicle: saline): 83 % of control | T/C (dose: 100.0 mg/kg/injection, schedule: Q07DX002 (ip), vehicle: suspension in saline): 79 % of control | T/C (dose: 200.0 mg/kg/injection, schedule: Q07DX002 (ip), vehicle: suspension in saline): 98 % of control | T/C (dose: 200.0 mg/kg/injection, schedule: Q07DX003 (ip), vehicle: saline): 79 % of control and 94 % of control | T/C (dose: 400.0 mg/kg/injection, schedule: Q07DX002 (ip), vehicle: suspension in saline): 70 % of control

Cc1cc(NC(=S)SCc2ccc3c(c2)OCO3)ccc1Cl
T/C [4]: 111 % of control | T/C [5]: 82 % of control

O=CC=O
T/C [7]: 72 % of control and 86 % of control | T/C [10]: 75 % of control and 77 % of control | T/C [9]: 80 % of control and 95 % of control

CCN1/C(=C/C=C/C=C/c2sc3ccccc3[n+]2CC)Sc2ccccc21
T/C (dose: 0.03 mg/kg/injection, schedule: Q07DX002 (ip), vehicle: saline): 151 % of control | T/C (dose: 0.03 mg/kg/injection, schedule: Q07DX002 (ip), vehicle: suspension in saline): 59 % of control | T/C (dose: 0.06 mg/kg/injection, schedule: Q07DX002 (ip), vehicle: saline): 167 % of control | T/C (dose: 0.06 mg/kg/injection, schedule: Q07DX002 (ip), vehicle: suspension in saline): 104 % of control | T/C (dose: 0.12 mg/kg/injection, schedule: Q07DX002 (ip), vehicle: saline): 122 % of control | T/C (dose: 0.12 mg/kg/injection, schedule: Q07DX002 (ip), vehicle: suspension in saline): 100 % of control | T/C (dose: 0.25 mg/kg/injection, schedule: Q07DX002 (ip), vehicle: suspension in saline): 104 % of control | T/C (dose: 0.5 mg/kg/injection, schedule: Q07DX002 (ip), vehicle: saline): 162 % of control | T/C (dose: 0.5 mg/kg/injection, schedule: Q07DX002 (ip), vehicle: suspension in saline): 109 % of control | T/C (dose: 1.0 mg/kg/injection, schedule: Q07DX002 (ip), vehicle: saline): 197 % of control

CCCCCC1c2cc(O)ccc2OC1N1CCOCC1 (stereo not given)
T/C (dose: 12.0 mg/kg/injection, schedule: Q07DX002 (ip), vehicle: saline with Tween-80): 107 % of control | T/C [11]: 161 % of control | T/C [10]: 169 % of control | T/C [8]: 55 % of control | T/C [9]: 170 % of control | T/C (dose: 450.0 mg/kg/injection, schedule: Q07DX002 (ip), vehicle: saline with Tween-80): 120 % of control | T/C (dose: 900.0 mg/kg/injection, schedule: Q07DX002 (ip), vehicle: saline with Tween-80): 154 % of control

C/C=C\C1OC1(C)c1cc(=O)c2c(C)cc3c(c2o1)C(=O)c1c(O)c(C2CC(C)(N(C)C)C(OC(C)=O)C(C)O2)cc(C2CC(N(C)C)C(O)C(C)O2)c1C3=O (stereo not given)
T/C (dose: 0.38 mg/kg/injection, schedule: Q07DX002 (ip), vehicle: saline + alcohol): 119 % of control | T/C (dose: 0.75 mg/kg/injection, schedule: Q07DX002 (ip), vehicle: saline + alcohol): 85 % of control | T/C (dose: 3.0 mg/kg/injection, schedule: Q07DX002 (ip), vehicle: saline + alcohol): 58 % of control | T/C (dose: 6.0 mg/kg/injection, schedule: Q07DX002 (ip), vehicle: saline + alcohol): 53 % of control

Nc1nc(N)c2c(ccc3c2ccn3Cc2cccc([N+](=O)[O-])c2)n1
T/C (dose: 3.12 mg/kg/injection, schedule: Q07DX002 (ip), vehicle: saline with Tween-80): 85 % of control | T/C (dose: 6.25 mg/kg/injection, schedule: Q07DX002 (ip), vehicle: saline with Tween-80): 80 % of control | T/C [6]: 72 % of control | T/C [11]: 14 % of control

ClCCCN1CCCCC1CCl (stereo not given)
T/C (dose: 0.78 mg/kg/injection, schedule: Q07DX002 (ip), vehicle: saline): 80 % of control and 86 % of control

CCC(=O)N(C)[C@@H](C)C(=O)O[C@H]1CC(=O)N(C)c2cc(cc(OC)c2Cl)C/C(C)=C/C=C[C@@H](OC)[C@@]2(O)C[C@H](OC(=O)N2)[C@@H](C)[C@@H]2O[C@@]12C
T/C (dose: 7.5 micrograms/kg/injection, schedule: Q07DX002 (ip), vehicle: saline + alcohol): 62 % of control | T/C (dose: 30.0 micrograms/kg/injection, schedule: Q07DX002 (ip), vehicle: saline + alcohol): 84 % of control | T/C (dose: 120.0 micrograms/kg/injection, schedule: Q07DX002 (ip), vehicle: saline + alcohol): 108 % of control

CCOC(C)C(/C=N/NC(N)=S)=NNC(N)=S (stereo not given)
T/C (dose: 12.5 mg/kg/injection, schedule: Q07DX003 (ip), vehicle: saline with Tween-80): 111 % of control | T/C [1]: 61 % of control | T/C (dose: 50.0 mg/kg/injection, schedule: Q07DX003 (ip), vehicle: saline with Tween-80): 99 % of control | T/C (dose: 100.0 mg/kg/injection, schedule: Q07DX003 (ip), vehicle: saline with Tween-80): 155 % of control | T/C [2]: 73 % of control | T/C [3]: 66 % of control

CC(=O)O[C@@H]1CO[C@H]2O[C@H]3[C@@H](C(C=O)=C[C@H](O)[C@@H]4C5=C(C(C)C)CC[C@]5(C)CC[C@@]34C)[C@@]2(O)C1=O
T/C (dose: 1.5 mg/kg/injection, schedule: Q07DX002 (ip), vehicle: Klucel (hydroxypropylcellulose) (HPC)): 57 % of control | T/C (dose: 3.0 mg/kg/injection, schedule: Q07DX002 (ip), vehicle: Klucel (hydroxypropylcellulose) (HPC)): 80 % of control | T/C (dose: 6.0 mg/kg/injection, schedule: Q07DX002 (ip), vehicle: Klucel (hydroxypropylcellulose) (HPC)): 61 % of control | T/C (dose: 12.0 mg/kg/injection, schedule: Q07DX002 (ip), vehicle: Klucel (hydroxypropylcellulose) (HPC)): 86 % of control
